Holding throughout (assay): NCI-60 cell line screen, 48 h
The subject of experiment [1] is TK-10 renal.
The test system of experiment [2] is SK-MEL-2 melanoma.
For experiment [3], the system named is SF-268 CNS.
The test system of experiment [4] is HS 578T breast.
The subject of experiment [5] is SNB-75 CNS.
In experiment [6] the test system is UACC-62 melanoma.
Experiment [7] relates to NCI-H23 lung.
Experiment [8] concerns SK-MEL-5 melanoma.
The test system of experiment [9] is UO-31 renal.
Experiment [10] deals with SN12C renal.

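Dose response: 5 concentrations. Exposure: 48 h. Format: 96-well plates. Endpoint: linear interpolation; highest concentration if not reached. GI50 = concentration required for 50% inhibition of growth. TGI marks complete inhibition of growth.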

With `CCn1c(SCc2nnc(Nc3ccccc3)s2)nc2ccccc2c1=O`, the TGI in experiment [1] came to 12.3 µM; in [2], 32 µM; in experiment [3], 22.3 µM; in experiment [4], 8.56 µM; in experiment [5], 14.2 µM; in [6] it was 11.9 µM. Further, the TGI turned out to be 19.4 µM in [7], 32.5 µM in experiment [8], 12.1 µM in experiment [9] and 18.2 µM in [10].
Consider `COc1ccc(-c2cc(-c3ccc(OC)c(OC)c3)nc(SCCCC(=O)NO)n2)cc1`, for which the GI50 in experiment [1] was 0.722 µM; in experiment [2] it was 2.14 µM; in [3], 1.97 µM; in experiment [4], 1.91 µM; in [5] it was 1.34 µM; in [6], 1.14 µM. The GI50 was 1.96 µM in experiment [7], 1.82 µM in [8] and 0.301 µM in experiment [9]. The TGI in [1] was more than 100 µM; in experiment [2], 5.85 µM; in experiment [3] it was 5.45 µM; in experiment [4], 33 µM; in experiment [5], 5.6 µM; in experiment [6], 2.68 µM. Further, the TGI in experiment [7] was 6.16 µM; in [8], 3.68 µM; in experiment [9], 1.44 µM.
For the compound `CCCC(CC)c1cc(O)c(O)cc1C(CC)CCC` (configuration not stated), the TGI in experiment [1], in [2], in [3], in experiment [4], in experiment [5] and in experiment [6] was more than 10 µM each time. For the same compound, the TGI in [7], in [8], in experiment [9] and in experiment [10] was more than 10 µM throughout.
On to `CC1Cc2c(cc(N)nc2Br)NC1=O` (configuration not stated), for which the TGI in experiment [1], in experiment [2], in experiment [3], in experiment [4], in experiment [5] and in experiment [6] was more than 100 µM throughout. The TGI in experiment [7], in [8], in [9] and in experiment [10] was more than 100 µM each time.
Take `CCOC(=O)c1c(SCCN2CCCCC2)n(-c2ccccc2)c(=S)n(-c2ccccc2)c1=O`: the TGI was 31.9 µM in [1]; more than 100 µM in experiment [2]; more than 75.4 µM in experiment [3]; 80.1 µM in [4]; 37.1 µM in experiment [5]; 68.9 µM in experiment [6]. For the same compound, the TGI turned out to be 34.8 µM in experiment [7], 29.7 µM in [8], 33.9 µM in experiment [9] and 37.5 µM in [10].
Regarding `CCOC(=O)COC1=Nc2cc(OC)c(OC)c3nc(Cl)cc(c23)C1=O`, the TGI in experiment [1] was 3.45 µM; in experiment [2] it was 4.09 µM; in [3] it was 6.83 µM; in [4], more than 20.6 µM; in [5] it was 5.87 µM; in experiment [6], 3.17 µM. In addition, the TGI in [7] was 5.3 µM; in [8] it was 3.53 µM; in experiment [9], 4.13 µM; in experiment [10], 3.3 µM.
On to `O=C1CCc2cc3c(cc21)C(C(=O)O)CC3` (configuration not stated), for which the TGI in [1], in [2], in experiment [3], in [4], in experiment [5] and in [6] was more than 100 µM in each case. Further, the TGI in [7], in experiment [8], in [9] and in [10] was more than 100 µM throughout.
For `c1cc2c3c(c1)[C@@H]1O[C@@H]1c1cccc(c1-3)[C@@H]1O[C@H]21`, the TGI is more than 100 µM in experiment [1]; 42.5 µM in experiment [2]; 33.6 µM in [3]; 40 µM in experiment [4]; 70.1 µM in experiment [5]; 33.3 µM in experiment [6]. Further, the TGI in experiment [7] came to 33.1 µM; in experiment [8] it was 35.6 µM; in [9], 30.3 µM; in [10], 54.2 µM.
Regarding `COC(C[C@H]1CCCC[C@]1(O)/C(=C\CO[Si](C(C)C)(C(C)C)C(C)C)Sc1ccccc1)OC`, the TGI was more than 100 µM in experiment [1]; 49.9 µM in [2]; more than 100 µM in experiment [3]; more than 100 µM in experiment [4]; 98.9 µM in experiment [5]; more than 100 µM in experiment [6]. Besides, the TGI in [7], in [8], in experiment [9] and in experiment [10] was more than 100 µM each time.
Take `COc1ccc(C(=O)/C=C/c2ccc(OCCCOc3ccc(/C=C/C(=O)c4ccc(OC)c(OC)c4)cc3)cc2)cc1OC`: the TGI in experiment [1], in experiment [2], in experiment [3], in [4], in [5] and in experiment [6] was more than 100 µM each time. The TGI in experiment [8], in experiment [9] and in [10] was more than 100 µM in each case.
Take `OCC1c2ccccc2-n2nc(-c3ccccc3)c(O)c21` (configuration not stated): the TGI in experiment [1] is 34.1 µM; in experiment [2], 43.9 µM; in experiment [3] it was more than 100 µM; in [4], more than 100 µM; in experiment [5] it was more than 100 µM; in experiment [6], 67.7 µM. For the same compound, the TGI in experiment [7] was more than 100 µM; in [8] it was more than 100 µM; in experiment [9] it was 92.4 µM; in experiment [10] it was 36.8 µM.
In the case of `CN(c1ccc(Cl)cc1)S(=O)(=O)c1ccccc1`, the TGI in experiment [1], in [2], in experiment [3], in experiment [4], in experiment [5] and in experiment [6] was more than 100 µM each time. For the same compound, the TGI is more than 100 µM in experiment [7], 47 µM in [8], more than 100 µM in experiment [9] and more than 100 µM in experiment [10].

(Values after PubChem BioAssay (NCI).)
